Test system: HeLa
Experiment: Cytotoxicity against human HeLa cells after 48 hrs by MTT assay
Type: functional, cell-based

**Q.** With `C[C@H](O)[C@H]1OC(=O)C[C@H]1O[C@H]1C=CC(=O)O[C@H]1C` [ANGIOPTERLACTONE A] as the compound, how does the IC50 read?
**A.** Its IC50 is 68.8 µM.
